Measurements from PMC4411097, “Pachymic Acid Inhibits Growth and Induces Apoptosis of Pancreatic Cancer In Vitro and In Vivo by Targeting ER Stress” (PLoS ONE, 2015).

Tested on: MIA PaCa-2 cells
Test: DNA microarray analysis (Affymetrix Human PrimeView)
Assay type: cell-based
[1] = gene SRP19, probeset 11758864_at
[2] = gene STC1, probeset 11750279_a_at
[3] = gene TMEM201, probeset 11726819_at
[4] = gene TNFAIP2, probeset 11717823_s_at
[5] = gene TNFRSF12A, probeset 11745020_a_at
[6] = gene TNFSF18, probeset 11737853_at
[7] = gene TRAF1, probeset 11721588_at
[8] = gene TXNRD1, probeset 11750416_a_at
[9] = gene symbol ---, probeset AFFX-M27830_M_at

Structure (SMILES): C=C(CC[C@@H](C(=O)O)[C@H]1[C@H](O)C[C@@]2(C)C3=C(CC[C@]12C)[C@@]1(C)CC[C@H](OC(C)=O)C(C)(C)[C@@H]1CC3)C(C)C [PA, Pachymic acid]
- Mean (MiaPaca-2 * PA) (gene SPRY4, probeset 11736669_s_at, MiaPaca-2, PA-treated): 6.19
- Fold-Change (MiaPaca-2 * PA vs. MiaPaca-2 * control) [1]: 1.58
- Mean (MiaPaca-2 * PA) [1]: 8.71
- Fold-Change (MiaPaca-2 * PA vs. MiaPaca-2 * control) [2]: 1.56
- Mean (MiaPaca-2 * PA) [2]: 5.97
- Mean (MiaPaca-2 * PA) (gene STX1A, probeset 11720340_a_at): 6.73
- Fold-Change (MiaPaca-2 * PA vs. MiaPaca-2 * control) [3]: 1.56
- Mean (MiaPaca-2 * PA) [3]: 6.77
- Fold-Change (MiaPaca-2 * PA vs. MiaPaca-2 * control) (gene TNF, probeset 11721577_at): 1.57
- Mean (MiaPaca-2 * PA) (gene TNF, probeset 11721577_at): 5.89
- Fold-Change (MiaPaca-2 * PA vs. MiaPaca-2 * control) [4]: 1.60
- Mean (MiaPaca-2 * PA) [4]: 8.52
- Fold-Change (MiaPaca-2 * PA vs. MiaPaca-2 * control) [5]: 1.59
- Mean (MiaPaca-2 * PA) [5]: 9.93
- Fold-Change (MiaPaca-2 * PA vs. MiaPaca-2 * control) [6]: 1.61
- Mean (MiaPaca-2 * PA) [6]: 7.58
- Fold-Change (MiaPaca-2 * PA vs. MiaPaca-2 * control) (gene TRA2B, probeset 11734663_at, MiaPaca-2): 1.51
- Mean (MiaPaca-2 * PA) (gene TRA2B, probeset 11734663_at, MiaPaca-2, PA-treated): 5.21
- Fold-Change (MiaPaca-2 * PA vs. MiaPaca-2 * control) [7]: 1.57
- Mean (MiaPaca-2 * PA) [7]: 5.45
- Fold-Change (MiaPaca-2 * PA vs. MiaPaca-2 * control) [8]: 1.56
- Mean (MiaPaca-2 * PA) [8]: 9.74
- Fold-Change (MiaPaca-2 * PA vs. MiaPaca-2 * control) [9]: 1.54
- Mean (MiaPaca-2 * PA) [9]: 11.57
- Fold-Change (MiaPaca-2 * PA vs. MiaPaca-2 * control), CDKN1A (probeset 11715388_s_at): 1.87
- Mean (MiaPaca-2 * PA), CDKN1A (probeset 11715388_s_at): 8.59
- Fold-Change (MiaPaca-2 * PA vs. MiaPaca-2 * control), CTGF (probeset 11715441_a_at): 2.27
- Mean (MiaPaca-2 * PA), CTGF (probeset 11715441_a_at): 6.57
- Fold-Change (MiaPaca-2 * PA vs. MiaPaca-2 * control), CTGF (probeset 11715442_s_at): 2.36
- Mean (MiaPaca-2 * PA), CTGF (probeset 11715442_s_at): 7.76
- Fold-Change (MiaPaca-2 * PA vs. MiaPaca-2 * control), CYR61 (probeset 11715493_a_at): 2.12
- Mean (MiaPaca-2 * PA), CYR61 (probeset 11715493_a_at): 10.88
- Fold-Change (MiaPaca-2 * PA vs. MiaPaca-2 * control), SERPINE1 (probeset 11715636_a_at): 1.72
- Mean (MiaPaca-2 * PA), SERPINE1 (probeset 11715636_a_at): 9.63
- Fold-Change (MiaPaca-2 * PA vs. MiaPaca-2 * control), DUSP1 (probeset 11715766_a_at): 1.72
- Mean (MiaPaca-2 * PA), DUSP1 (probeset 11715766_a_at): 8.75
- Fold-Change (MiaPaca-2 * PA vs. MiaPaca-2 * control), HMOX1 (probeset 11716939_a_at): 1.83
- Mean (MiaPaca-2 * PA), HMOX1 (probeset 11716939_a_at): 7.80
- Fold-Change (MiaPaca-2 * PA vs. MiaPaca-2 * control), GADD45A (probeset 11717039_a_at): 1.88
- Mean (MiaPaca-2 * PA), GADD45A (probeset 11717039_a_at): 11.35
- Fold-Change (MiaPaca-2 * PA vs. MiaPaca-2 * control), EGR1 (probeset 11717860_a_at): 1.78
- Mean (MiaPaca-2 * PA), EGR1 (probeset 11717860_a_at): 10.72
- Fold-Change (MiaPaca-2 * PA vs. MiaPaca-2 * control), DNAJA4 (probeset 11718618_a_at): 2.01
- Mean (MiaPaca-2 * PA), DNAJA4 (probeset 11718618_a_at): 6.51
- Fold-Change (MiaPaca-2 * PA vs. MiaPaca-2 * control), IL8 (probeset 11718841_s_at): 2.40
- Mean (MiaPaca-2 * PA), IL8 (probeset 11718841_s_at): 12.69
- Fold-Change (MiaPaca-2 * PA vs. MiaPaca-2 * control), TNFAIP3 (probeset 11718939_s_at): 2.11
- Mean (MiaPaca-2 * PA), TNFAIP3 (probeset 11718939_s_at): 7.50
- Fold-Change (MiaPaca-2 * PA vs. MiaPaca-2 * control), TNFAIP3 (probeset 11718940_a_at): 2.00
- Mean (MiaPaca-2 * PA), TNFAIP3 (probeset 11718940_a_at): 6.10
- Fold-Change (MiaPaca-2 * PA vs. MiaPaca-2 * control), ATF3 (probeset 11719344_a_at): 3.30
- Mean (MiaPaca-2 * PA), ATF3 (probeset 11719344_a_at): 7.56
- Fold-Change (MiaPaca-2 * PA vs. MiaPaca-2 * control), CXCL1 (probeset 11719366_s_at): 2.03
- Mean (MiaPaca-2 * PA), CXCL1 (probeset 11719366_s_at): 12.27
- Fold-Change (MiaPaca-2 * PA vs. MiaPaca-2 * control), TRIB3 (probeset 11719811_a_at): 1.77
- Mean (MiaPaca-2 * PA), TRIB3 (probeset 11719811_a_at): 9.38
- Fold-Change (MiaPaca-2 * PA vs. MiaPaca-2 * control), HBEGF (probeset 11719898_s_at): 2.54
- Mean (MiaPaca-2 * PA), HBEGF (probeset 11719898_s_at): 8.25
- Fold-Change (MiaPaca-2 * PA vs. MiaPaca-2 * control), IL1B (probeset 11719916_at): 1.90
- Mean (MiaPaca-2 * PA), IL1B (probeset 11719916_at): 7.92
- Fold-Change (MiaPaca-2 * PA vs. MiaPaca-2 * control), IER3 (probeset 11720062_s_at): 2.10
- Mean (MiaPaca-2 * PA), IER3 (probeset 11720062_s_at): 10.23
- Fold-Change (MiaPaca-2 * PA vs. MiaPaca-2 * control), RELB (probeset 11722141_at): 1.71
- Mean (MiaPaca-2 * PA), RELB (probeset 11722141_at): 7.47
- Fold-Change (MiaPaca-2 * PA vs. MiaPaca-2 * control), B3GNT5 (probeset 11722705_at): 1.83
- Mean (MiaPaca-2 * PA), B3GNT5 (probeset 11722705_at): 6.95
- Fold-Change (MiaPaca-2 * PA vs. MiaPaca-2 * control), BIRC3 (probeset 11722850_a_at): 1.69
- Mean (MiaPaca-2 * PA), BIRC3 (probeset 11722850_a_at): 8.98
- Fold-Change (MiaPaca-2 * PA vs. MiaPaca-2 * control), BIRC3 (probeset 11722851_at): 1.77
- Mean (MiaPaca-2 * PA), BIRC3 (probeset 11722851_at): 7.17
- Fold-Change (MiaPaca-2 * PA vs. MiaPaca-2 * control), CDCP1 (probeset 11722867_at): 1.68
- Mean (MiaPaca-2 * PA), CDCP1 (probeset 11722867_at): 8.84
- Fold-Change (MiaPaca-2 * PA vs. MiaPaca-2 * control), HSPA6 (probeset 11723050_a_at): 9.74
- Mean (MiaPaca-2 * PA), HSPA6 (probeset 11723050_a_at): 8.06
- Fold-Change (MiaPaca-2 * PA vs. MiaPaca-2 * control), ZFAND2A (probeset 11723753_a_at): 2.17
- Mean (MiaPaca-2 * PA), ZFAND2A (probeset 11723753_a_at): 9.04
- Fold-Change (MiaPaca-2 * PA vs. MiaPaca-2 * control), FOSL1 (probeset 11724478_s_at): 1.74
- Mean (MiaPaca-2 * PA), FOSL1 (probeset 11724478_s_at): 8.17
- Fold-Change (MiaPaca-2 * PA vs. MiaPaca-2 * control), GBP1 (probeset 11726329_x_at): 1.76
- Mean (MiaPaca-2 * PA), GBP1 (probeset 11726329_x_at): 5.88
- Fold-Change (MiaPaca-2 * PA vs. MiaPaca-2 * control), SERPINB8 (probeset 11728413_at): 1.95
- Mean (MiaPaca-2 * PA), SERPINB8 (probeset 11728413_at): 8.88
- Fold-Change (MiaPaca-2 * PA vs. MiaPaca-2 * control), CXCL3 (probeset 11728476_a_at): 2.47
- Mean (MiaPaca-2 * PA), CXCL3 (probeset 11728476_a_at): 8.40
- Fold-Change (MiaPaca-2 * PA vs. MiaPaca-2 * control), CXCL3 (probeset 11728477_at): 2.55
- Mean (MiaPaca-2 * PA), CXCL3 (probeset 11728477_at): 8.95
- Fold-Change (MiaPaca-2 * PA vs. MiaPaca-2 * control), HSPA1A /// HSPA1B (probeset 11729119_a_at): 1.71
- Mean (MiaPaca-2 * PA), HSPA1A /// HSPA1B (probeset 11729119_a_at): 11.39
